Source: ChEMBL document CHEMBL1201862, “PubChem BioAssay data set” (2004)
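Protocol summary: plate cells (96-well), add compound at 5 concentrations, incubate 48 h, interpolate endpoints linearly. Abbreviation: GI50, concentration required for 50% inhibition of growth.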 The source made the active and inactive calls. Rule as the data show it: active = GI50 up to about 1.1 µM and inactive = higher.

Legend:
Experiment in all cases: NCI tumour cell line growth inhibition, 48 h
[1] = test system: 786-0
[2] = test system: A498
[3] = test system: A549
[4] = test system: ACHN
[5] = test system: CAKI-1
[6] = test system: CCRF-CEM
[7] = test system: COLO 205
[8] = test system: DMS-114
[9] = test system: DMS-273
[10] = test system: EKVX
[11] = test system: HCC 2998
[12] = test system: HCT-116
[13] = test system: HCT-15
[14] = test system: HL-60
[15] = test system: HOP-62
[16] = test system: HOP-92
[17] = test system: HT-29
[18] = test system: IGROV-1
[19] = test system: K562
[20] = test system: KM-20L2
[21] = test system: KM12
[22] = test system: LOX IMVI
[23] = test system: LXFL 529
[24] = test system: M14
[25] = test system: M19-MEL
[26] = test system: MOLT-4
[27] = test system: Malme-3M
[28] = test system: NCI-H226
[29] = test system: NCI-H23
[30] = test system: NCI-H460
[31] = test system: NCI-H522
[32] = test system: OVCAR-3
[33] = test system: OVCAR-4
[34] = test system: OVCAR-5
[35] = test system: OVCAR-8
[36] = test system: RPMI-8226
[37] = test system: RXF 393
[38] = test system: SF-268
[39] = test system: SF-295
[40] = test system: SF-539
[41] = test system: SK-MEL-28
[42] = test system: SK-MEL-2
[43] = test system: SK-MEL-5
[44] = test system: SK-OV-3
[45] = test system: SN12C
[46] = test system: SNB-19
[47] = test system: SNB-75
[48] = test system: SNB-78
[49] = test system: SR
[50] = test system: SW-620
[51] = test system: TK-10
[52] = test system: U-251
[53] = test system: UACC-257
[54] = test system: UACC-62
[55] = test system: UO-31
[56] = test system: XF498
[57] = test system: DLD-1

With `CCOc1cc2c(C(=O)CC)c(O)ccc2o1` the GI50 [1] was > 100 µM (inactive), the GI50 [2] was > 52.7 µM (inactive) and the GI50 [3] was > 100 µM (inactive). The GI50 [4] was > 100 µM (inactive), the GI50 [5] was > 100 µM (inactive) and the GI50 [6] was 24.9 µM (inactive). For the same molecule, the GI50 [7] was > 67.9 µM (inactive), the GI50 [8] was > 54.5 µM (inactive) and the GI50 [9] was > 100 µM (inactive). For the same molecule, the GI50 [10] was > 100 µM (inactive), the GI50 [11] was > 100 µM (inactive) and the GI50 [12] was > 48 µM (inactive). The GI50 [13] was greater than 100 µM, the GI50 [14] was 12.9 µM (inactive) and the GI50 [15] was > 100 µM (inactive). For the same molecule, the GI50 [16] was > 100 µM (inactive), the GI50 [17] was 39 µM (inactive) and the GI50 [18] was > 100 µM (inactive). The GI50 [19] was 28.8 µM (inactive), the GI50 [20] was > 100 µM (inactive) and the GI50 [21] was > 100 µM (inactive). For the same molecule, the GI50 [22] was > 100 µM (inactive), the GI50 [23] was 64.9 µM (inactive) and the GI50 [24] was > 55 µM (inactive). For the same molecule, the GI50 [25] was 31.1 µM (inactive), the GI50 [26] was 58.1 µM (inactive) and the GI50 [27] was > 100 µM (inactive). The GI50 [28] was > 100 µM (inactive), the GI50 [29] was > 100 µM (inactive) and the GI50 [30] was > 100 µM (inactive). The GI50 [31] was > 100 µM (inactive), the GI50 [32] was > 100 µM (inactive) and the GI50 [33] was > 40.8 µM (inactive). For the same molecule, the GI50 [34] was > 100 µM (inactive), the GI50 [35] was > 79.6 µM (inactive) and the GI50 [36] was > 58.1 µM (inactive). For the same molecule, the GI50 [37] was > 45.1 µM (inactive), the GI50 [38] was > 100 µM (inactive) and the GI50 [39] was > 100 µM (inactive). For the same molecule, the GI50 [40] was > 100 µM (inactive), the GI50 [41] was > 35.3 µM (inactive) and the GI50 [42] was > 100 µM (inactive). For the same molecule, the GI50 [43] was > 39.3 µM (inactive), the GI50 [44] was > 48.1 µM (inactive) and the GI50 [45] was > 100 µM (inactive). The GI50 [46] was > 100 µM (inactive), the GI50 [47] was > 91 µM (inactive) and the GI50 [48] was > 96.6 µM (inactive). For the same molecule, the GI50 [49] was 33.7 µM (inactive), the GI50 [50] was 57.3 µM (inactive) and the GI50 [51] was > 79.8 µM (inactive). The GI50 [52] was > 100 µM (inactive), the GI50 [53] was > 100 µM (inactive) and the GI50 [54] was > 37.6 µM (inactive). For the same molecule, the GI50 [55] was > 100 µM (inactive) and the GI50 [56] was > 49.9 µM (inactive).
In the case of `CCCC(C(=O)OC)C1N/C(=N/C#N)N(Cc2ccccc2)C1=O` (stereo not drawn), the GI50 [1] is reported as > 100 µM (inactive), the GI50 [3] is reported as > 100 µM (inactive) and the GI50 [4] is reported as > 100 µM (inactive). The GI50 [5] was > 100 µM (inactive), the GI50 [6] was > 100 µM (inactive) and the GI50 [7] was > 100 µM (inactive). The GI50 [57] was > 100 µM (inactive), the GI50 [8] was > 100 µM (inactive) and the GI50 [9] was > 100 µM (inactive). For the same molecule, the GI50 [10] was > 100 µM (inactive), the GI50 [11] was > 100 µM (inactive) and the GI50 [12] was > 100 µM (inactive). For the same molecule, the GI50 [13] was greater than 100 µM, the GI50 [14] was > 100 µM (inactive) and the GI50 [15] was > 100 µM (inactive). The GI50 [17] was > 100 µM (inactive), the GI50 [18] was > 100 µM (inactive) and the GI50 [19] was 66.4 µM (inactive). For the same molecule, the GI50 [20] was > 100 µM (inactive), the GI50 [21] was > 100 µM (inactive) and the GI50 [22] was > 100 µM (inactive). The GI50 [23] was > 100 µM (inactive), the GI50 [24] was > 100 µM (inactive) and the GI50 [25] was > 100 µM (inactive). For the same molecule, the GI50 [26] was > 100 µM (inactive), the GI50 [27] was > 100 µM (inactive) and the GI50 [29] was > 100 µM (inactive). For the same molecule, the GI50 [30] was > 100 µM (inactive), the GI50 [31] was > 100 µM (inactive) and the GI50 [32] was > 100 µM (inactive). For the same molecule, the GI50 [33] was > 100 µM (inactive), the GI50 [34] was > 100 µM (inactive) and the GI50 [35] was > 100 µM (inactive). The GI50 [36] was > 100 µM (inactive), the GI50 [37] was > 100 µM (inactive) and the GI50 [38] was > 100 µM (inactive). The GI50 [39] was > 100 µM (inactive), the GI50 [41] was > 100 µM (inactive) and the GI50 [42] was > 100 µM (inactive). The GI50 [43] was > 100 µM (inactive), the GI50 [44] was > 100 µM (inactive) and the GI50 [45] was > 100 µM (inactive). For the same molecule, the GI50 [46] was > 100 µM (inactive), the GI50 [47] was 22.9 µM (inactive) and the GI50 [49] was 91.2 µM (inactive). The GI50 [50] was > 100 µM (inactive), the GI50 [51] was > 100 µM (inactive) and the GI50 [52] was > 100 µM (inactive). The GI50 [53] was > 100 µM (inactive), the GI50 [54] was > 100 µM (inactive) and the GI50 [55] was 67.1 µM (inactive). For the same molecule, the GI50 [56] was > 100 µM (inactive).
